Laboratory results as given in ChEMBL document CHEMBL1157539, “Thousands of chemical starting points for antimalarial lead identification” (Nature, 2010).

system: Plasmodium falciparum; test: GSK_TCMDC: Inhibition of Plasmodium falciparum 3D7 in whole erythrocytes, using parasite LDH activity as an index of growth.; assay type: functional, organism-based; conditions: Plasmodium falciparum, 3D7

| SMILES | XC50 [µM] |
| --- | --- |
| CCc1cccc(-c2cc(N)n(C)c3nc(N)nc(=O)c2-3)c1 | 1.12 |
| CC(C)CCN1CCC(Oc2ccc(NC(=O)c3ccco3)cc2Cl)CC1 | 0.676 |
| Nc1ncnc2nc(-c3ccc(F)cc3)cc(-c3ccc(NC(=O)c4ccccc4)cc3)c12 | 0.64 |
| CN(C)CCOc1ccc2c(c1)CN(C)CC2c1ccccc1 (stereo not drawn) | 1.11 |
| CCCc1c(C(=O)Nc2ccc3c(c2)CCN(C2CCC2)CC3)cnn1-c1ccc(Cl)cc1 | 0.858 |
| CCN(CC)CCOC(=O)C(OC)(c1ccccc1)c1ccccc1 | 1.02 |
| Cc1cc(N2CC=CCC2)nc(NC(=N)Nc2ccc(Br)cc2)n1 | 0.69 |
| CN1CCN(c2ccnc3ccc(NC(=O)Cc4ccc5ccccc5c4)cc23)CC1 | 0.759 |
| CN(C)CCN(C)Cc1nc(-c2ccc3c(Nc4ccc(Oc5ccccc5)cc4)ccnc3c2)cs1 | 0.212 |
| CC(C)Cc1nc(N2CCOCC2)c2nnn(Cc3ccccc3)c2n1 | 0.508 |
| O=C(Nc1cccc(CN2CCCN(Cc3ncc[nH]3)CC2)c1)c1cc2ccccc2s1 | 0.734 |
| NC1CCN(Cc2cccc(-c3ccc(-c4nc5ccccc5[nH]4)cc3)c2)C1 (stereo not drawn) | 0.83 |
| Cc1cc(-c2ccc(CNCCc3cccs3)cc2)ccc1S(=O)(=O)NCc1ccccc1 | 1.14 |
| COc1ccc(C2CC(=O)C3=C(C2)NC(C)=C(C(=O)OC(C)C)C3c2ccc(O)cc2)cc1OC (stereo not drawn) | 0.278 |
| CC(C)CNCc1ccc(-c2cccc(CN(C(=O)NC3CCCCC3)C3CCN(Cc4ccccc4)CC3)c2)cc1 | 0.805 |
| O=C(NCCCN1CCC(N2CCCCC2)CC1)C1=Cc2cc(Br)ccc2OC1 | 0.853 |
| CS(=O)(=O)N(c1ccc(F)cc1)c1cc(C(=O)N[C@@H](Cc2ccccc2)[C@H](O)CNCc2cccc(C(F)(F)F)c2)cc(N2CCCC2=O)c1 | 1.35 |
| CN(c1ccc(NC(=O)CCOc2ccccc2)cc1)C1CCN(Cc2cccc(O)c2)CC1 | 1.32 |
| CC(=O)Nc1ccc(OCCCN(Cc2ccccc2OC(F)(F)F)c2ccc(C(F)(F)F)c(C#N)c2)c(Cl)c1 | 0.813 |
| CCCN(CCC)C(=O)c1cc(C(=O)N[C@@H](Cc2ccccc2)[C@H](O)CNC(C)(C)c2cccc(OC)c2)cc(N2CCCCS2(=O)=O)c1 | 0.0298 |
| COc1ccc(CN2CCC(CN3CC4(OC3=O)c3ccccc3-c3ccccc34)C2)c(O)c1 (stereo not drawn) | 0.613 |
| COc1ccc2nc(C)cc(NCc3cccc4ccccc34)c2c1 | 0.217 |
| CCCCCCC(N)c1ccc(OCCCOc2ccc(C(N)CCCCCC)cc2)cc1 (stereo not drawn) | 1.14 |
| COc1ccc(-c2cccc(NC(=O)c3ccc(C#N)cc3)c2)cc1CN1CCN(C)CC1 | 0.99 |
| COc1ccc(/C=C/C(=O)NCCCCCN2CCC(c3c[nH]c4ccccc34)CC2)cc1O | 0.957 |

| SMILES | XC50 [µM] |
| --- | --- |
| Nc1c(I)cc(C(=O)Nc2ccc3nc4c(c(N)c3c2)CCCC4)cc1I | 0.143 |
| Cc1ccc(CNC(=O)[C@H](CCCN)Nc2nc(NCC3CCCCC3)ncc2C)cc1 | 0.987 |
| CC(C)(C)SC1SC(SC(C)(C)C)C(OC(=O)c2ccccc2)C(OC(=O)c2ccccc2)C1OC(=O)c1ccccc1 (stereo not drawn) | 0.937 |
| Cc1ccc2c(c1)C1(CC(=O)N(CCc3scnc3C)C1=O)C(=O)N2Cc1ccccc1 (stereo not drawn) | 1.25 |
| CN1CCN(c2ncnc3ccc(NC(=O)Nc4ccc(Cl)c(Cl)c4)cc23)CC1 | 0.264 |
| Cc1ccc2cc(NC(=O)CCCCCCCON3C(N)=NC(N)=NC34CCCCC4)ccc2n1 | 0.0925 |
| CC(C)(CNCc1cc(Cl)cc(Cl)c1)c1nc(-c2ccnc(N)n2)c(-c2ccc(Cl)c(O)c2)[nH]1 | 1.01 |
| COc1ccc(-c2cccc(NC(=O)c3ccc(C#N)cc3)c2)cc1CN1CCCC1 | 0.696 |
| COCCNC(=O)C1CCN(C(c2ccc(Cl)cc2)c2ccc(Cl)cc2)CC1 | 0.553 |
| COc1cc(C=NNc2ccnc3cc(Cl)ccc23)ccc1O | 0.134 |
| CCCCCn1c(Sc2ccc(C#N)c([N+](=O)[O-])c2)nnc1-c1ccc(OC)cc1 | 1.14 |
| CN1CCCC1CCNCc1cccc(-c2cnc(N3CCCC(C)(C)C3)nc2)c1 (stereo not drawn) | 0.927 |
| CC(C)CCN1CCCN(Cc2ccc(C(=O)NCc3ccc(Cl)cc3)cc2)CC1 | 1.01 |
| COc1ccc(-c2nccc(NC(=N)NCc3ccccc3)n2)cc1 | 0.671 |
| O=C(Nc1cccc(-c2cccc(-c3nc4ccccc4[nH]3)c2)c1)Nc1ccc2c(c1)OCO2 | 0.167 |
| CCc1c(C)nc(-n2nc(C)cc2NC(=O)C(CC)c2ccccc2)[nH]c1=O (stereo not drawn) | 0.714 |
| CCCc1cc(Cc2cnc(N)nc2N)ccc1OCCCCCC(=O)O | 0.577 |
| O=C(Nc1cc(Cl)cc(Cl)c1)N[C@H]1CCN(CCCCCNC(=O)C2CC2c2ccc(Cl)c(Cl)c2)C1 (stereo partly drawn) | 0.856 |
| O=C(NCCCCCN1CCC(c2c[nH]c3ccccc23)CC1)Nc1ccc(Cl)cc1Cl | 0.716 |
| Nc1nccc2ccc(-c3ccc(Oc4ccccc4)cc3)cc12 | 0.278 |
| CCCC1N=C(N)N=C(N)N1c1ccc(C)cc1 (stereo not drawn) | 0.0952 |
| COc1ccc(CN2CCN(Cc3cc(Cl)ccc3O)CC2CCO)c(C)c1C (stereo not drawn) | 1.49 |
| COCCNCc1cccc(-c2cccc(CNC3CCN(Cc4ccccc4)CC3)c2)c1 | 0.283 |
| N#Cc1ccc(N2CCN(Cc3cccc(-c4ccc(-c5nc6ccccc6[nH]5)cc4)c3)CC2)nc1 | 1.24 |
| CC(CN(C)C)C(=O)Nc1ccc(-c2csc(-c3nc4ccccc4[nH]3)c2)cc1 (stereo not drawn) | 1.32 |

| SMILES | XC50 [µM] |
| --- | --- |
| CCc1cc(Br)c(CNCCCNc2cc(=O)c3ccccc3[nH]2)s1 | 0.949 |
| CCc1c(C)c2ccc3c(c2oc1=O)CN(CCc1ccc(F)cc1)CO3 | 1.23 |
| OC(CNc1ccnc(Nc2ccc(Cl)cc2)n1)c1cccc(C(F)(F)F)c1 (stereo not drawn) | 0.676 |
| Cc1cccc2nc(-c3ccc(-c4cccc(NC(=O)CCc5c[nH]cn5)c4)s3)[nH]c12 | 0.838 |
| COc1ccc2nccc([C@@H](O)CN3C4CCC3CC(NCc3ccc5c(n3)NC(=O)CS5)C4)c2n1 (stereo partly drawn) | 0.934 |
| CCC(C)CN1CCN(c2ccc(NC(=O)c3cccs3)cc2)C(C)C1 (stereo not drawn) | 0.544 |
| O=C(Nc1ccc(-c2ccc(-c3nc4ccccc4[nH]3)s2)cc1)Nc1ccc(F)c(F)c1F | 0.194 |
| CCN(C)C(=O)n1ncc2c3c(N)nc(N)nc3ccc21 | 0.176 |
| O=S(=O)(Nc1ccc(CCN2CCCCC2CCN2CCCC2)cc1)c1cccc2cccnc12 (stereo not drawn) | 1.3 |
| CC(C)N1CCN(c2ccc(OCCCCN3CCN(c4cccc(Cl)c4Cl)CC3)cc2Cl)CC1 | 1.04 |
| OC(CNCc1ccccc1OCc1ccccc1)c1cc(Br)cs1 (stereo not drawn) | 0.722 |
| CC(C)CC(=O)N1CCNC[C@@H]1C(=O)NCCSCc1c(F)cccc1Cl | 1.2 |
| CCCCc1cc(=O)oc2cc(C)cc(OCc3ccccc3F)c12 | 1.03 |
| CC(C)C[C@H](NC(=O)c1cc2ccccc2s1)C(=O)N[C@H]1CCN(Cc2ccc(OC3CCN(C)C3)c(Cl)c2)C1 (stereo partly drawn) | 0.782 |
| CC[C@H]1CN2CC[C@H]1C[C@H]2[C@H](O)c1cc(-c2ccccc2C(F)(F)F)nc2ccc(OC)cc12 | 0.234 |
| c1cncc(-c2cc(N3CCc4ccccc4C3)nc(-c3ccncc3)n2)c1 | 0.0409 |
| COc1ccc2[nH]c(C)cc(=NN=Cc3cccc(F)c3)c2c1 | 0.285 |
| CCN(CC)Cc1cccc(-c2cc3c(-c4ccc(C(=O)O)c(C(C)C)c4)ccnc3[nH]2)c1OC | 0.323 |
| CN(C)c1cccc(CCNCCc2c[nH]c3ccc(Cl)cc23)c1 | 0.436 |
| c1ccc2[nH]c(-c3ccc(-c4ccc(CN5CCC(N6CCCCC6)CC5)cc4)s3)nc2c1 | 0.153 |
| Cc1[nH]c2ccccc2c1C1=CCN(CCCCC23CCCc4cccc(c42)NC3=O)CC1 (stereo not drawn) | 0.231 |
| CCNc1cc(C(=O)N[C@@H](Cc2ccccc2)[C@H](O)CNC2CCCC2)cc(N2CCCC2=O)c1 | 0.0834 |
| Cc1ccc(NCC(=O)Nc2ccc(F)c(Cl)c2)cc1S(=O)(=O)N1CCOCC1 | 0.0576 |
| O=C(/C=C/c1ccc(Cl)c(Cl)c1)NCCCN1CCC(c2c[nH]c3ccccc23)CC1 | 0.966 |
| CCCCCOc1ccc(/N=C2\C=C(O)C(=O)c3ccccc32)cc1 | 0.243 |

| SMILES | XC50 [µM] |
| --- | --- |
| COc1ccc(-c2ccc(NC(=O)c3ccc(C#N)cc3)cc2)cc1CN1CCN(C)CC1 | 0.721 |
| CCCO[C@H](C(=O)OC)[C@@H](CC1Cc2ccccc2C1)C(=O)NCCC1=CCCCC1 | 0.97 |
| COc1ccc2nccc([C@@H](O)CN3CCC(NCc4nc5c(F)cccc5[nH]4)CC3)c2c1 | 0.467 |
| Nc1nc(N)c2cc(N(Cc3ccccc3)Cc3ccccc3)ccc2n1 | 0.612 |
| Cc1cccc2c3c([nH]c12)C1(CCN(Cc2ccccc2)CC1)NC(C(=O)NCc1ccccc1)C3 (stereo not drawn) | 1.37 |
| Cc1ccc(Nc2nccc(N(C)c3ccc4c(c3)nc(NC(=O)Cc3ccc(Cl)c(Cl)c3)n4C)n2)cc1S(N)(=O)=O | 1.11 |
| CCNc1cc(C(=O)N[C@@H](Cc2ccccc2)[C@H](O)CNC(C)Cc2cccc(Cl)c2)cc(N2CCCCS2(=O)=O)c1 (stereo partly drawn) | 0.496 |
| COc1ccccc1-c1ccc(CNC(=O)C(CN2CCN(C)CC2)c2ccccc2)cc1 (stereo not drawn) | 1.26 |
| CCC(C)c1ccc(NC(=O)C(C)c2ccc([N+](=O)[O-])cc2)cc1 (stereo not drawn) | 0.176 |
| O=C(NCCCCN1CCC(c2ccc3c(c2OCC2CC2)CCCC3)CC1)c1ccc(NC(=O)c2ccc(Cl)cc2)cc1 | 0.68 |
| Cc1ccc(O)cc1Nc1ccnc2cc(-c3ccccn3)ccc12 [GW440139A] | 0.761 |
| Cc1cc(Nc2ncc(Cl)c(Nc3ccccc3C(N)=O)n2)n[nH]1 | 0.811 |
| CC[C@H](C)CNC(=O)c1cncc(-c2cccc(CN(C)C3CCN(C)CC3)c2)c1 | 0.785 |
| N=C(/N=C(/NCCCCCCN/C(=N\C(=N)Nc1ccc(Cl)cc1)N1CCCCC1)N1CCCCC1)Nc1ccc(Cl)cc1 | 0.256 |
| Cc1nn(-c2ccnc3cc(Cl)ccc23)c(C)c1C(=O)NCc1cc(Cl)cc(Cl)c1 | 0.869 |
| c1ccc(-c2cccnn2)cc1 | 0.91 |
| O=C(Nc1cccc(-c2ccc(CN3CCCC3)cc2)c1)c1ccc(F)cc1 | 1.08 |
| COc1ccc(-c2cccc(NC(=O)c3ccc(C#N)cc3)c2)cc1CN1CCCN(C)CC1 | 0.756 |
| CC(=O)c1ccccc1OCCSc1nnc(Cc2cccs2)n1C1CCCCC1 | 0.919 |
| O=C(Nc1ccccc1-c1nc2ccccc2s1)C(Cl)(Cl)Cl | 0.638 |
| CCN(CC)CCOc1ccc(NC(=O)c2oc3ccccc3c2C=Cc2ccccc2)cc1 | 0.223 |
| CCN(CC)/C(=N/C(=N)NCc1cccc(Cl)c1)NCCCCCCN/C(=N\C(=N)NCc1cccc(Cl)c1)N(CC)CC | 0.206 |
| COc1ccc(Nc2nc(N/N=C/c3ccc(O)cc3)nc(Nc3ccc([N+](=O)[O-])cc3)n2)cc1 | 1.12 |
